Among the data in US9505762B2, “Purine derivatives as CB2 receptor agonists” (Hoffmann-La Roche Inc., priority 2013, dated 2016) are EC50 values, retold here.

The target of one experiment is human CB2 receptors (Homo sapiens (Human), UniProt P34972). The experiment is described as follows: functional cAMP assay, CB2. Particulars: CHO cells expressing human CB2. The class given is cell-based.
For another experiment, the target named is human CB1 receptors (Homo sapiens (Human), UniProt P21554). The experiment is described as follows: functional cAMP assay, CB1. The class given is cell-based. Particulars: CHO cells expressing human CB1. In general terms: Changes in cAMP serve as a functional read-out for many G protein-coupled receptors.

As a reminder, the EC50 is the concentration at which the effect is half-maximal. A high value points to lower potency in that assay.

human CB2 receptors, sequence (P34972 whole entry): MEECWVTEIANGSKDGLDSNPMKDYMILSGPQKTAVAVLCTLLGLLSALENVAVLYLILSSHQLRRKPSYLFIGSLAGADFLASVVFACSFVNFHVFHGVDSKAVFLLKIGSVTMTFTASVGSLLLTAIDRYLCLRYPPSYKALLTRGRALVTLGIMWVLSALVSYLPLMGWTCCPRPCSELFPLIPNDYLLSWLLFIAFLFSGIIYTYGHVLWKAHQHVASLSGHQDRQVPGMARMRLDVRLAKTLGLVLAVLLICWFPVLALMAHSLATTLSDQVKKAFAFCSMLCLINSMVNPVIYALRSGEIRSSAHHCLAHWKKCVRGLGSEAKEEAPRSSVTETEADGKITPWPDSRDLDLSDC
human CB1 receptors, sequence (P21554 whole entry): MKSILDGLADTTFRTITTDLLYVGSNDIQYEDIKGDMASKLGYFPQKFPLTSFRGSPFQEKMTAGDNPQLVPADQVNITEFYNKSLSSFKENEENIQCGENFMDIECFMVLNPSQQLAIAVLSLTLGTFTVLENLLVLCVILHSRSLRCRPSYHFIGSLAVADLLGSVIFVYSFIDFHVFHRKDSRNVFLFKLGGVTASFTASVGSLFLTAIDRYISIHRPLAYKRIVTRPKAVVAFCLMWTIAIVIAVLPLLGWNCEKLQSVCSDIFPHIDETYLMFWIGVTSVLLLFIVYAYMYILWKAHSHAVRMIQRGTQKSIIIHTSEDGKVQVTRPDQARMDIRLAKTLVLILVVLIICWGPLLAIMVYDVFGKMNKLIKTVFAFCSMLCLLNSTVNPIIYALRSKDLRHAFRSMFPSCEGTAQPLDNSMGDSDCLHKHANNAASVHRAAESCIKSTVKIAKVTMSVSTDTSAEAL

As to `CC(C)(C)c1nc(N2CC(F)(F)C(F)(F)C2)c2ncn(CCC(F)(F)F)c2n1` [Example 93, 2-tert-butyl-6-(3,3,4,4-tetrafluoropyrrolidin-1-yl)-9-(3,3,3-trifluoropropyl)purine], the 50% effective concentration (EC50) was 89.8 nM at human CB2 receptors and greater than 10000 nM at human CB1 receptors.

As for `COCCn1cnc2c(N3CC[C@H](O)C3)nc(C(C)(C)C)nc21` [Example 94, (3S)-1-[2-tert-butyl-9-(2-methoxyethyl)purin-6-yl]pyrrolidin-3-ol], the half-maximal effective concentration (EC50) on human CB2 receptors is 440 nM; on human CB1 receptors it was greater than 10000 nM.

As to `Cn1nnnc1Cn1cnc2c(N3CC[C@H](O)C3)nc(C(C)(C)C)nc21` [Example 95, (3S)-1-[2-tert-butyl-9-[(1-methyltetrazol-5-yl)methyl]purin-6-yl]pyrrolidin-3-ol], the values for the concentration for a half-maximal effect (EC50) on human CB2 receptors and at human CB1 receptors were 363 nM and greater than 10000 nM, respectively.

As for `Cc1nonc1Cn1cnc2c(N3CC[C@H](O)C3)nc(C(C)(C)C)nc21` [Example 96, (3S)-1-[2-tert-butyl-9-[(4-methyl-1,2,5-oxadiazol-3-yl)methyl]purin-6-yl]pyrrolidin-3-ol], the figures for the concentration giving a half-maximal response (EC50) at human CB2 receptors and on human CB1 receptors were 14.8 nM and greater than 10000 nM, respectively.

Regarding `CC(C)(C)c1nc(N2CC[C@H](O)C2)c2ncn(Cc3ccccc3Cl)c2n1` [Example 97, (3S)-1-[2-tert-butyl-9-[(2-chlorophenyl)methyl]purin-6-yl]pyrrolidin-3-ol], the results for the concentration giving a half-maximal response (EC50) on human CB2 receptors and at human CB1 receptors were 1.8 nM and greater than 10000 nM, respectively.

Take `CC(C)(C)c1nc(N2CC[C@H](O)C2)c2ncn(Cc3c[nH]nc3C(F)(F)F)c2n1` [Example 98, (3S)-1-[2-tert-butyl-9-[[3-(trifluoromethyl)-1H-pyrazol-4-yl]methyl]purin-6-yl]pyrrolidin-3-ol]: the EC50 at human CB2 receptors was 22.3 nM; on human CB1 receptors, greater than 10000 nM.

Regarding `CC(C)(C)c1nc(N2CC[C@H](O)C2)c2ncn(CCC(F)(F)F)c2n1` [Example 99, (3S)-1-[2-tert-butyl-9-(3,3,3-trifluoropropyl)purin-6-yl]pyrrolidin-3-ol], the concentration giving a half-maximal response (EC50) is 228 nM at human CB2 receptors and greater than 10000 nM at human CB1 receptors.

Take `CC(C)(C)c1nc(N2CC[C@H](O)C2)c2ncn(Cc3n[nH]cc3C(F)(F)F)c2n1` [Example 100, (3S)-1-[2-tert-butyl-9-[[4-(trifluoromethyl)-1H-pyrazol-3-yl]methyl]purin-6-yl]pyrrolidin-3-ol]: the EC50 is 6.6 nM on human CB2 receptors and greater than 10000 nM at human CB1 receptors.

In the case of `Cc1noc(Cn2cnc3c(N4CC[C@H](O)C4)nc(C(C)(C)C)nc32)n1` [Example 101, (3S)-1-[2-tert-butyl-9-[(3-methyl-1,2,4-oxadiazol-5-yl)methyl]purin-6-yl]pyrrolidin-3-ol], the EC50 is 370 nM on human CB2 receptors and greater than 10000 nM on human CB1 receptors.

As for `CC1(O)CCN(c2nc(C(C)(C)C)nc3c2ncn3CCC(F)(F)F)C1` (stereo not shown) [Example 102, 1-[2-tert-butyl-9-(3,3,3-trifluoropropyl)purin-6-yl]-3-methylpyrrolidin-3-ol], the concentration giving a half-maximal response (EC50) at human CB2 receptors is 135 nM; on human CB1 receptors it was greater than 10000 nM.

For `CC(=O)N[C@H]1CCN(c2nc(C(C)(C)C)nc3c2ncn3CCC(F)(F)F)C1` [Example 103, N-[(3S)-1-[2-tert-butyl-9-(3,3,3-trifluoropropyl)purin-6-yl]pyrrolidin-3-yl]acetamide], the concentration for a half-maximal effect (EC50) on human CB2 receptors is 211 nM; on human CB1 receptors it was greater than 10000 nM.

Regarding `CC(C)(C)c1nc(N2CCC3(COC3)C2)c2ncn(Cc3ncccc3Cl)c2n1` [Example 104, 7-[2-tert-butyl-9-[(3-chloropyridin-2-yl)methyl]purin-6-yl]-2-oxa-7-azaspiro[3.4]octane], the half-maximal effective concentration (EC50) on human CB2 receptors is 160 nM; at human CB1 receptors, greater than 10000 nM.

Turning to `CC(C)(C)c1nc(N2CC(F)(F)C(F)(F)C2)c2ncn(Cc3ccccc3C(F)(F)F)c2n1` [Example 105, 2-tert-butyl-6-(3,3,4,4-tetrafluoropyrrolidin-1-yl)-9-[[2-(trifluoromethyl)phenyl]methyl]purine], the values for the EC50 on human CB2 receptors and at human CB1 receptors were 8.9 nM and greater than 10000 nM, respectively.

Regarding `CC(C)(C)c1nc(N2CC(F)(F)C(F)(F)C2)c2ncn(Cc3ccccc3S(C)(=O)=O)c2n1` [Example 106, 2-tert-butyl-9-[(2-methylsulfonylphenyl)methyl]-6-(3,3,4,4-tetrafluoropyrrolidin-1-yl)purine], the concentration for a half-maximal effect (EC50) at human CB2 receptors was 39.9 nM; on human CB1 receptors, greater than 10000 nM.

For `CC(C)(C)Nc1nc(N2CCC(F)(F)C2)c2ncn(Cc3ccccc3Cl)c2n1` [Example 107, N-tert-butyl-9-[(2-chlorophenyl)methyl]-6-(3,3-difluoropyrrolidin-1-yl)purin-2-amine], the concentration for a half-maximal effect (EC50) was 8.1 nM at human CB2 receptors and greater than 10000 nM at human CB1 receptors.

With `CC(C)(C)Nc1nc(N2CCC(F)(F)C2)c2ncn(Cc3ccccc3C(F)(F)F)c2n1` [Example 108, N-tert-butyl-6-(3,3-difluoropyrrolidin-1-yl)-9-[[2-(trifluoromethyl)phenyl]methyl]purin-2-amine], the EC50 was 6.7 nM on human CB2 receptors and greater than 10000 nM at human CB1 receptors.

As to `CC(C)(C)Nc1nc(N2CCC(F)(F)C2)c2ncn(CCC(F)(F)F)c2n1` [Example 110, N-tert-butyl-6-(3,3-difluoropyrrolidin-1-yl)-9-(3,3,3-trifluoropropyl)purin-2-amine], the EC50 on human CB2 receptors was 18.3 nM; on human CB1 receptors, greater than 10000 nM.

Turning to `Cc1nonc1Cn1cnc2c(N3CCC(F)(F)C3)nc(NC(C)(C)C)nc21` [Example 111, N-tert-butyl-6-(3,3-difluoropyrrolidin-1-yl)-9-[(4-methyl-1,2,5-oxadiazol-3-yl)methyl]purin-2-amine], the EC50 on human CB2 receptors was 14.7 nM; at human CB1 receptors it was greater than 10000 nM.

With `CC(C)(C)Nc1nc(N2CCC(F)(F)C2)c2ncn(Cc3ncccc3Cl)c2n1` [Example 112, N-tert-butyl-9-[(3-chloropyridin-2-yl)methyl]-6-(3,3-difluoropyrrolidin-1-yl)purin-2-amine], the figures for the EC50 on human CB2 receptors and at human CB1 receptors were 7.9 nM and greater than 10000 nM, respectively.

For `Cn1nnnc1Cn1cnc2c(N3CCC(F)(F)C3)nc(NC(C)(C)C)nc21` [Example 113, N-tert-butyl-6-(3,3-difluoropyrrolidin-1-yl)-9-[(1-methyltetrazol-5-yl)methyl]purin-2-amine], the EC50 at human CB2 receptors is 249 nM; at human CB1 receptors it was greater than 10000 nM.

Consider `CC(C)(C)Nc1nc(N2CCC(F)(F)C2)c2ncn(Cc3ccccc3S(C)(=O)=O)c2n1` [Example 114, N-tert-butyl-6-(3,3-difluoropyrrolidin-1-yl)-9-[(2-methylsulfonylphenyl)methyl]purin-2-amine], for which the EC50 at human CB2 receptors was 45.5 nM; on human CB1 receptors, greater than 10000 nM.

As to `Cc1noc(Cn2cnc3c(N4CCC(F)(F)C4)nc(NC(C)(C)C)nc32)n1` [Example 115, N-tert-butyl-6-(3,3-difluoropyrrolidin-1-yl)-9-[(3-methyl-1,2,4-oxadiazol-5-yl)methyl]purin-2-amine], the figures for the half-maximal effective concentration (EC50) on human CB2 receptors and on human CB1 receptors were 195 nM and greater than 10000 nM, respectively.

For the compound `CC(C)(C)Nc1nc(N2CC[C@H](O)C2)c2ncn(Cc3ccccc3Cl)c2n1` [Example 116, (3S)-1-[2-(tert-butylamino)-9-[(2-chlorophenyl)methyl]purin-6-yl]pyrrolidin-3-ol], the results for the concentration giving a half-maximal response (EC50) on human CB2 receptors and on human CB1 receptors were 12.1 nM and greater than 10000 nM, respectively.

For the compound `CC(C)(C)Nc1nc(N2CC[C@H](O)C2)c2ncn(Cc3ccccc3C(F)(F)F)c2n1` [Example 117, (3S)-1-[2-(tert-butylamino)-9-[[2-(trifluoromethyl)phenyl]methyl]purin-6-yl]pyrrolidin-3-ol], the EC50 on human CB2 receptors was 7.2 nM; at human CB1 receptors, greater than 10000 nM.

Regarding `CC(C)(C)Nc1nc(N2CC[C@H](O)C2)c2ncn(Cc3ncccc3Cl)c2n1` [Example 118, (3S)-1-[2-(tert-butylamino)-9-[(3-chloropyridin-2-yl)methyl]purin-6-yl]pyrrolidin-3-ol], the EC50 at human CB2 receptors was 152 nM; on human CB1 receptors, greater than 10000 nM.

For `Cc1nonc1Cn1cnc2c(N3CC[C@H](O)C3)nc(NC(C)(C)C)nc21` [Example 119, (3S)-1-[2-(tert-butylamino)-9-[(4-methyl-1,2,5-oxadiazol-3-yl)methyl]purin-6-yl]pyrrolidin-3-ol], the half-maximal effective concentration (EC50) is 149 nM at human CB2 receptors and greater than 10000 nM at human CB1 receptors.

Regarding `CC1(O)CCN(c2nc(NC(C)(C)C)nc3c2ncn3Cc2ccccc2Cl)C1` (stereo not shown) [Example 120, 1-[2-(tert-butylamino)-9-[(2-chlorophenyl)methyl]purin-6-yl]-3-methylpyrrolidin-3-ol], the values for the EC50 on human CB2 receptors and on human CB1 receptors were 108 nM and greater than 10000 nM, respectively.

On to `CC1(O)CCN(c2nc(NC(C)(C)C)nc3c2ncn3Cc2ccccc2C(F)(F)F)C1` (stereo not shown) [Example 121, 1-[2-(tert-butylamino)-9-[[2-(trifluoromethyl)phenyl]methyl]purin-6-yl]-3-methylpyrrolidin-3-ol], for which the EC50 on human CB2 receptors was 41.3 nM; on human CB1 receptors, greater than 10000 nM.

Turning to `Cc1nonc1Cn1cnc2c(N3CCC(C)(O)C3)nc(NC(C)(C)C)nc21` (stereo not shown) [Example 123, 1-[2-(tert-butylamino)-9-[(4-methyl-1,2,5-oxadiazol-3-yl)methyl]purin-6-yl]-3-methylpyrrolidin-3-ol], the EC50 on human CB2 receptors was 563 nM; at human CB1 receptors, greater than 10000 nM.

Regarding `CC(C)(C)COc1nc(N2CCC(F)(F)C2)c2ncn(Cc3ccccc3Cl)c2n1` [Example 124, 9-[(2-chlorophenyl)methyl]-6-(3,3-difluoropyrrolidin-1-yl)-2-(2,2-dimethylpropoxy) purine], the concentration giving a half-maximal response (EC50) on human CB2 receptors was 2.7 nM; at human CB1 receptors, greater than 10000 nM.

As to `CC(C)(C)COc1nc(N2CCC(F)(F)C2)c2ncn(Cc3ccccc3C(F)(F)F)c2n1` [Example 125, 6-(3,3-difluoropyrrolidin-1-yl)-2-(2,2-dimethylpropoxy)-9-[[2-(trifluoromethyl)phenyl]methyl]purine], the 50% effective concentration (EC50) at human CB2 receptors was 2.6 nM; at human CB1 receptors, greater than 10000 nM.

For the compound `CC(C)(C)COc1nc(N2CCC(F)(F)C2)c2ncn(Cc3ccccc3S(C)(=O)=O)c2n1` [Example 126, 6-(3,3-difluoropyrrolidin-1-yl)-2-(2,2-dimethylpropoxy)-9-[(2-methylsulfonylphenyl)methyl]purine], the values for the EC50 on human CB2 receptors and on human CB1 receptors were 24.5 nM and greater than 10000 nM, respectively.
